Results: PMC3859510 (PLoS ONE, 2013)
Like-named read-outs stand apart in the source and are kept apart here.

How the values were obtained:
[1] = Cytostatic assay (MTS/PMS) in Huh 7.5.1 cells; assay type: cell-based; conditions: human
Protocol: (§1) Cells were seeded at a density of 5×10^3 or 7.2×10^3 cells per well in a 96-well plate in complete DMEM in serial dilutions of the test compounds for Huh 5-2 and Huh 7.5.1 cells, respectively. After three days of incubation, cell viability was determined by MTS/PMS method (Promega).

[2] = system: infectious HCV JFH-1/CS-N6 in Huh 7.5.1 cells; assay: microbe, parasite or virus in culture; assay type: cell-based, hepatitis C virus (HCV); conditions: for SI: HCVcc system, CC50/EC50; for EC50: 3 days, qRT-PCR, mean ± SD, four independent experiments
Protocol: The highly infectious HCV JFH-1/CS-N6 described by Delgrange et al was used for the antiviral assays. A total of 7.2×10^3 Huh 7.5.1 cells per well of a 96-well cell culture plate were incubated with the virus at specific infectivity of about 400 (400 HCV RNA copies per foci-forming unit) and at the same time with serial dilutions of compounds. Following 3 days of incubation, medium was removed and cells were washed once and lysed to extract the intracellular RNA with the RNeasy kit (Qiagen). HCV RNA was quantified by means of qRT-PCR [25].
A qRT-PCR mixture contained: cellular RNA extract, HCV JFH-1 forward primer SF-JFH86 [5′-[…]-3′], reverse primer SR-JFH194 [5′-[…]-3′], and probe [5′-FAM-[…]-TAMRA-3′], was performed at 50°C for 30 min, subsequent 15 min at 95°C and PCR amplification of 40 cycles of denaturation at 94°C for 20 s and annealing and extension at 60°C for 1 min in an ABI 7500 Taqman (Live Technologies).

[3] = system: HCV replicons I389luc-ubi-neo/NS3-3′/5.1 (Huh 5-2), genotype 1b subgenomic replicon; assay: Antiviral assay in HCV replicon cells (Huh 5-2, firefly luciferase); assay type: cell-based, hepatitis C virus (HCV); conditions: for EC50: Hepatitis C virus, read-out: EC50 (50% effective concentration), HCV replicon replication, Huh 5-2 subgenomic replicon (genotype 1b), firefly luciferase, mean ± SD, four independent experiments; for fold-change of EC50 with Hemin (5 µM) (value between brackets): Huh 5-2 replicon, potentiation by Hemin 5 µM
Protocol: Cells carrying HCV replicons I389luc-ubi-neo/NS3-3′/5.1 (Huh 5-2) were kindly provided by Prof. R. Bartenschlager (University of Heidelberg, Germany). Cells were cultured in Dulbecco’s modified Eagle’s Medium (DMEM, Gibco, Merelbeke, Belgium) supplemented with 10% heat-inactivated fetal bovine serum (Integro, Zaandam, The Netherlands), 1× non-essential amino acids, 100 IU/mL penicillin (Gibco), 100 µg/mL streptomycin (Gibco), and 250 µg/mL G418. Cell cultures were maintained at 37°C with 5% CO2.
(§2) The antiviral assay was performed as described, [22]. Briefly, cells were seeded at a density of 5×10^3 cells per well in 96-well cell culture plates in DMEM containing 250 µg/mL G418 at 37°C (5% CO2). After 24 hours of incubation, medium was replaced with fresh DMEM (without G418) and serial dilutions of the test compounds. Replicon RNA levels were determined by a quantitative reverse transcription polymerase chain reaction (qRT-PCR) or quantified by measuring the firefly luciferase activity in 96-well cell culture plates (Safire, Tecan, Austria).

[4] = Cytostatic assay (MTS/PMS) in Huh 5-2 cells; assay type: cell-based; conditions: human, three days
Protocol: as §1

[5] = system: HCV replicon in Huh 5-2 cells; assay: Drug combination studies (checker-board, Prichard and Shipman) in the HCV replicon system; assay type: cell-based, hepatitis C virus (HCV); conditions: Figure S2
Protocol: as §2
The effects of drug combinations were evaluated in a checker-board format using the method of Prichard and Shipman. The theoretical additive effect was calculated from the dose–response curves of individual compounds by the equation Z = X+Y(1−X), where X represents the inhibition produced by first compound alone and Y the inhibition by the second compound alone. Z represents the effect produced by the combination of the first with the second compound. The theoretical additive surface is subtracted from the actual experimental surface, resulting in a horizontal surface that equals the zero plane when the combination is additive. A surface that lies above the zero plane indicates a synergistic effect of the combination, and a surface below the zero plane indicates an antagonism. […]

Huh 7.5.1 cells = assay: Cytostatic assay (MTS/PMS) in Huh 7.5.1 cells; assay type: cell-based
Protocol: as §1

[6] = Huh 7.5.1 hepatoma cells, three days, MTS/PMS
[7] = Hepatitis C virus, Huh-7.5.1, 72 h, read-out: EC50 (50% effective concentration), replication of HCVcc, infectious HCV JFH-1 in Huh 7.5.1
[8] = read-out: EC50 (50% effective concentration), replication of HCVcc, infectious HCV JFH-1 in Huh 7.5.1

Row | Compound | CC50 at 3 days [1, 6] [µM] | SI [2] | EC50 [2, 7] [µM] | EC50 [3] [µM] | fold-change of EC50 with Hemin (5 µM) (value between brackets) [3] | CC50 at 3 days [4] [µM] | further results
1 | C[C@@H]1CCC2[C@@H](C)[C@H](OCc3ccc(CO)cc3)OC3O[C@@]4(C)CCC1[C@]32OO4 (some centres unmarked) [AJ-001] | > 133 | > 5 | 26 ± 5 | 8.8 ± 2.7 | 2 fold | > 133 | –
2 | C[C@@H]1CCC2[C@@H](C)[C@H](OCc3ccc(C=O)cc3)OC3O[C@@]4(C)CCC1[C@]32OO4 (some centres unmarked) [AJ-002] | > 133 | > 8 | 15 ± 2 | 30 ± 8 | 15 fold | > 133 | –
3 | CC1CCC2C(C)C(OCc3ccc(COC4OC5OC6(C)CCC7C(C)CCC(C4C)C57OO6)cc3)OC3OC4(C)CCC1C32OO4 (centres unmarked) [AJ-004] | > 133 | > 8 | 16 ± 4 | 3.2 ± 2.4 | – | > 133 | fold more efficient in inhibiting HCV replicon replication compared to the monomer AJ-001 ([3]; subgenomic replicon system): ~3 fold; fold more potent than the monomer AJ-002 ([3]; subgenomic replicon system): ~10 fold
4 | C[C@@H]1CC[C@H]2[C@@H](C)C(=O)O[C@@H]3O[C@@]4(C)CC[C@@H]1[C@]32OO4 [ART, Artemisinin, reference compound] | > 400 | > 2 | 167 ± 38 | 75 ± 7 | 8 fold | > 400 | effect of the combination with TEMPO [5]: marginaly antagonistic effect; host cell proliferation and cell viability at the highest concentration tested (Huh 7.5.1 cells; 400 µM, HCVcc system cells): not affected; potentiation of antiviral activity by Hemin in the HCVcc system ([2]; Hemin at 5 µM): 2 fold
5 | CO[C@H]1O[C@@H]2O[C@@]3(C)CC[C@H]4[C@H](C)CC[C@@H]([C@H]1C)[C@@]24OO3 [Artemether] | < 6 | – | – | – | – | – | –
6 | C[C@H]1[C@H](OC(=O)CCC(=O)O)O[C@@H]2O[C@@]3(C)CC[C@H]4[C@H](C)CC[C@@H]1[C@@]24OO3 [Artesunate] | < 6 | – | – | – | – | – | –
7 | C[C@H]1[C@@H](O)O[C@@H]2O[C@@]3(C)CC[C@H]4[C@H](C)CC[C@@H]1[C@@]24OO3 [Dihydroartemisinin] | < 6 | – | – | – | – | – | –
8 | CC(=O)N[C@@H](CS)C(=O)O [L-NAC, L-N-acetylcysteine, reference compound] | – | – | – | – | – | – | HCV RNA replication with L-NAC alone ([2]; L-NAC alone at the concentration tested, printed as HCVcc replication): 98 % of UTC
9 | CC1(C)CCCC(C)(C)N1[O] [TEMPO, 2,2,6,6-tetramethyl-1-piperidinyloxy, reference compound] | – | – | – | – | – | – | effect of TEMPO alone on the replication of HCV ([3]; HCV replicon system, concentrations up to 200 µM): no effect
10 | CC(=O)OC1OC2OC3(C)CCC4C(C)CCC(C1C)C24OO3 (centres unmarked) [TVN2] | – | – | > 70 | 25 ± 13 | +4 fold | 36 ± 7 | –
11 | C=COC1OC2OC3(C)CCC4C(C)CCC(C1C)C24OO3 (centres unmarked) [TVN4] | > 133 | > 2 | 59 ± 6 | 36 ± 16 | +2 fold | 123 ± 14 | effect of the combination with TEMPO [5]: marginaly antagonistic effect; EC50 [2, 8]: 52 ± 6 µM
12 | CC1CCC2C(C)C(OC(=O)c3ccccc3)OC3OC4(C)CCC1C32OO4 (centres unmarked) [TVN6] | – | – | > 70 | 3.6 ± 2.3 | – | 40 ± 20 | –
13 | CCC[C@H](NC(=O)[C@@H]1[C@H]2CCC[C@H]2CN1C(=O)[C@@H](NC(=O)[C@@H](NC(=O)c1cnccn1)C1CCCCC1)C(C)(C)C)C(=O)C(=O)NC1CC1 [VX-950, reference compound] | – | > 50 | 0.2 ± 0.1 | – | – | – | CC50 at 3 days [1]: > 10 µM
14 | Hemin [reference compound] | – | – | – | – | – | – | concentration not toxic to Huh 7.5.1 (Huh 7.5.1 cells; Hemin alone): > 50 µM; EC50 [2, 8]: 8 ± 0.6 µM
